According to patent US20220030850A1, “CRYOPRESERVATIVE COMPOSITIONS AND METHODS” (REGENTS OF THE UNIVERSITY OF MINNESOTA, priority 2015, published 2022):

Key:
H9-MSCs = assay: MSC vial freezing, post-thaw recovery and two-hour attachment (Example 5); assay type: cell-based, human; details: DMSO, room temperature pre-freeze incubation; 1° C./min; FIG. 21C
Description: Optimized solutions were prepared at double (2×) the final freezing concentration and added stepwise to cells in NORMOSOL-R (Hospira, Inc., Lake Forest, Ill.) at a 1:1 final volume ratio in a freezing vial (NALGENE, Nalge Nunc, Penfield, N.Y.). Control cells in media were similarly combined stepwise with DMSO at a 1:1 final volume ratio. Each of these vials was incubated at room temperature for 0 hours, one hour, or two hours. Experimental solutions were frozen using a 3° C./min cooling rate protocol described below, while DMSO solutions were frozen using a 1° C./min cooling rate protocol on a controlled rate freezer (Kryo 10 Series III, Planer PLC, Middlesex, United Kingdom). […]
Samples were submerged in a 37° C. bath to just under cap level, and agitated until only a small ice crystal was present. The cells were combined with acridine orange/propidium iodide (AO/PI) and counted using a hemocytometer. […]
Cell attachment of samples post-thaw was measured using a fluorescent plate reader. […] After two hours or 24 hours, these paired plates were washed with PBS, 1 μM calcein-acetoxymethyl (AM) dye was added, and then analyzed for fluorescence on a plate reader. Raw fluorescence values were used to calculate the number of live cells present in each well by correlating to a control curve of cells seeded at known densities. […]

[1] = system: MSCs (CD73, CD90, CD105, CD45); assay: Surface marker characterization by flow cytometry; assay type: cell-based, human; details: frozen MSCs
Text: Cells were suspended to a concentration of 1×10^6 cells/ml in media and stained with a panel of the following antibodies: mouse IgG1 anti-human CD73 (APC-conjugated, BD Biosciences, San Jose, Calif., clone AD2), mouse IgG1 anti-human CD90 (FITC-conjugate, clone 5E10, Molecular Probes, Eugene, Oreg.), mouse IgG1 anti-human CD105 (PE-conjugated, R&D Systems, Inc., Minneapolis, Minn. clone 166707) and mouse IgG1 anti-human CD45 (BV421-conjugated, clone HI30, BD Biosciences, San Jose, Calif.). Cells were incubated with antibodies for 30 minutes at 4° C. Flow cytometry was performed on a flow cytometer (LSR II, BD Biosciences, San Jose, Calif.) at low flow rate with the fine adjust knob five turns from max. At least 15,000 events were recorded for each sample. Cell populations were gated for forward and side scatter compared to unstained MSCs and CD45 expressing Jurkat cells as, respectively, negative and positive controls to establish boundaries for fluorescent signals.

Jurkat cells = assay: Raman microscopy cell penetration study of cryoprotectants; assay type: cell-based; details: Raman microscopy, at room temperature and at freezing temperatures
Description: Raman microscopy data provides an indication of the location of action of each cryopreservative. The images in FIG. 12 show Jurkat cells frozen in either glycerol (penetrating) or trehalose (non-penetrating).
These experiments were performed for most of the components described in the sections above both at room temperature and at freezing temperatures to assess whether penetration was temperature dependent.
Confocal Raman Microspectroscopy (CRM) measurements are conducted using Witec Confocal Raman Microscope System Alpha 300R (WITec, Wissenschaftliche Instrumente und Technologie GmbH, Ulm, Germany) with UHTS300 spectrometer and DV401 CCD detector. A wavelength of 532 nm Nd:YAG laser and 10 mW of power is used as excitation source. The laser is transferred to the microscopy in a singer fiber. A 100× air objective (NA 0.90; Nikon Instruments, Melville, N.Y.) is used for focusing the 532 nm excitation laser to the sample. Data collection and analysis are performed by Windows-based WitecControl_1.38 software.

lysozyme = lysozyme (Gallus gallus, UniProt P00698); assay: Differential scanning calorimetry, denaturation temperature of lysozyme in osmolyte solution; assay type: physicochemical; details: 1 mg/ml lysozyme in 20 mM HEPES buffer; single osmolytes 600 mM; heated at 1° C./min; pH 7.3
lysozyme, sequence (P00698 19-147): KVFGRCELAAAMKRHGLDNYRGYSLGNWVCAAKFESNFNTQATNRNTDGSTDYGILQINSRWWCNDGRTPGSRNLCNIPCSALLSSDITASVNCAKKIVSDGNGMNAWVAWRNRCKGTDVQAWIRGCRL
Description: Lysozyme powder was dissolved into each solution reaching final concentration of 100 mg/ml and then refrigerated. Lysozyme in DPBS solution was used as control. For DSC measurements, experiment solution was made by dissolving osmolyte into 20 mM HEPES buffer and the concentration of osmolyte in each solution remained same as in DPBS solution. Lysozyme powder was dissolved into each solution reaching final concentration of 1 mg/ml and kept refrigerated. Lysozyme in HEPES buffer was used as control. The pH of solutions was 7.3 measured by Beckman 350 meter. Differential scanning calorimetry was performed on a differential scanning calorimeter (Q1000, TA Instruments, New Castle, Del.). Osmolyte solutions containing lysozyme were heated in order to determine the denaturation temperature of lysozyme. Experimental solutions were heated from room temperature to 90° C. at 1° C./min. Specific heat, Cp, was calculated from the heat flow data assuming Cp as a function of temperature were analyzed using OriginPro software (OriginLab Corp., Northampton, Mass.) to subtract curve baseline. The midpoint temperature, Tm, was obtained as the temperature corresponding to the maximum specific heat value from the baseline and the denaturation temperature was assumed to be Tm^32.

| SMILES | attachment of cells, effect of incubation prior to freezing (H9-MSCs) | cell recovery, effect of incubation prior to freezing (H9-MSCs) | expression of negative surface marker CD45 [1] | expression of positive surface markers CD73, CD90, CD105 [1] | Penetration (Jurkat cells) | Denaturation temperature Tm of lysozyme (lysozyme) |
| --- | --- | --- | --- | --- | --- | --- |
| C[S+](C)[O-] [DMSO, dimethyl sulfoxide] | significantly reduced | did not alter | < 1% | > 99% |  |  |
| OC[C@H]1O[C@@](CO)(O[C@H]2O[C@H](CO)[C@@H](O)[C@H](O)[C@H]2O)[C@@H](O)[C@@H]1O [Sucrose] |  |  |  |  | Yes | 84.4 °C |
